Laboratory results reported in US6500849B1, “1-alkyl-, 1-alkenyl-, and 1-alkynylaryl-2-amino 1,3-propanediols and related compounds” (Aventis Pharmaceuticals Inc., priority 1990, dated 2002).
≈ marks a conversion by molar mass, not a printed value. Read-outs that look alike come from different tables or passages of the source.

Legend:
[1] = tested on: E. coli; test: Aerobic antibacterial assay (agar dilution, Mueller-Hinton agar); format: cell-based; details: Escherichia coli, 24 h, read-out: Antibacterial activity (MIC, mg/l)
[2] = tested on: Bact. fragilis; test: Anerobic antibacterial assay (agar dilution, Wilkins-Chalgren agar); format: cell-based; details: Bacteroides fragilis, anaerobic, 48 hours at 37° C.
[3] = tested on: Bact. ovatus; test: as above; format: cell-based; details: Bacteroides ovatus; Bact. ovatus 103; anaerobic; 48 hours at 37° C.; read-out: Antibacterial activity (MIC, mg/l)
[4] = tested on: Bact. vulgatus; test: as above; format: cell-based; details: Phocaeicola vulgatus, 48 h, read-out: Antibacterial activity (MIC, mg/l)
[5] = tested on: Bact. thetaiotaom.; test: as above; format: cell-based; details: anaerobic, 48 hours at 37° C.
[6] = tested on: Bact. distasonis; test: as above; format: cell-based; details: Parabacteroides distasonis, 48 h, read-out: Antibacterial activity (MIC, mg/l)
[7] = tested on: Fusobact. varium; test: as above; format: cell-based; details: 48 h, read-out: Antibacterial activity (MIC, mg/l)
[8] = tested on: Spaeroph. freundii; test: as above; format: cell-based; details: 48 h, read-out: Antibacterial activity (MIC, mg/l)
[9] = tested on: Peptostr. anaerobius; test: as above; format: cell-based; details: 48 h, read-out: Antibacterial activity (MIC, mg/l)
[10] = tested on: Propionibact. acnes; test: as above; format: cell-based; details: 48 h, read-out: Antibacterial activity (MIC, mg/l)
[11] = tested on: Clost. tetani; test: as above; format: cell-based; details: Clostridium tetani, 48 h, read-out: Antibacterial activity (MIC, mg/l)
[12] = tested on: Clost. perfringens; test: microbe, parasite or virus in culture; format: cell-based; details: Clostridium perfringens, 48 h, read-out: Antibacterial activity (MIC, mg/l)
[13] = tested on: Aspergillus Niger; test: Antifungal assay (microtitration technique); format: cell-based; details: 120 h; Aspergillus Niger strain 500/284; 5 days at 30° C.
Protocol: (§1) The microtiter plate is prepared as follows: The wells are each filled (2 rows/strain) with 50 μl neopeptone-dextrose broth (12-channel pipette). In addition, one row/strain is coated with 50 μl yeast-nitrogen base/well for yeasts and moulds. […] All wells are then inoculated with 150 μl standardized organism suspension (yeasts: 1×10^3 organisms/ml suspension; cutaneous fungi and moulds: 1.6×10^5 organisms/ml suspension); the total volume is 200 μl per well. There is also a growth control (inoculated, not medicated), a solvent control (inoculated, not medicated, containing solvent as in medicated rows) and a negative control (not inoculated, not medicated). Incubation for 5 days at 30° C. is followed by photometric evaluation. The obtained measurements are checked visually (macroscopically and microscopically) and corrected where necessary. Criteria for Evaluation of the Antimycotic Effect a. Photometric measurements (matrix method) b. Growth, macroscopic evaluation c. Growth, microscopic evaluation (inversion light microscope, magn. 64×).

[14] = tested on: Candida Albicans; test: Antifungal assay (microtitration technique); format: cell-based; details: 120 h; Candida Albicans strain 200/175; 5 days at 30° C.
Protocol: as §1

[15] = tested on: Microsporum Canis; test: Antifungal assay (microtitration technique); format: cell-based; details: 120 h; Microsporum Canis strain 150/353; 5 days at 30° C.
Protocol: as §1

[16] = tested on: Trichophyton Mentagrophytes; test: Antifungal assay (microtitration technique); format: cell-based; details: 120 h; Trichophyton Mentagrophytes strain 100/25; 5 days at 30° C.
Protocol: as §1

[17] = tested on: Trichophyton Rubrum; test: Antifungal assay (microtitration technique); format: cell-based; details: 120 h; Trichophyton Rubrum strain 101/85; 5 days at 30° C.
Protocol: as §1

[18] = tested on: Trichophyton Vaginalis; test: Antifungal assay (microtitration technique); format: cell-based; details: 120 h; Trichophyton Vaginalis strain 111/216; 5 days at 30° C.
Protocol: as §1

[19] = tested on: Staph. aureus; test: Aerobic antibacterial assay (agar dilution, Mueller-Hinton agar); details: Staphylococcus aureus, 24 h
[20] = tested on: Strept. pyogenes; test: as above; details: Streptococcus pyogenes, 24 h, read-out: Antibacterial activity (MIC, mg/l)
[21] = tested on: Strept. faecium; test: as above; details: Enterococcus faecium, 24 h, read-out: Antibacterial activity (MIC, mg/l)
[22] = tested on: S. typhimurium; test: as above; details: Salmonella enterica, TYPHIMURIUM, 24 h, read-out: Antibacterial activity (MIC, mg/l)
[23] = tested on: Klebsiella spp.; test: as above; details: Klebsiella, 24 h, read-out: Antibacterial activity (MIC, mg/l)
[24] = tested on: E. cloacae; test: as above; details: Enterobacter cloacae, 24 h, read-out: Antibacterial activity (MIC, mg/l)

Question: CCCCCCCCCCc1cccc(C(O)C(N)CO)n1 (stereo not drawn) [erythro-2-Amino-1-(6-Decyl-2-pyridinyl)-1,3-dihydroxypropane] was tested. Which MIC ([1]; E. coli 1507E, 24 hours at 37° C.) did it give?
Answer: 12.5 mg/L (≈ 40.5 µM)

Question: And the MIC ([1]; E. coli DC0, 24 hours at 37° C.)?
Answer: 12.5 mg/L (≈ 40.5 µM)

Question: What about the MIC ([1]; E. coli DC2, 24 hours at 37° C.) of the same compound?
Answer: 6.25 mg/L (≈ 20.3 µM)

Question: What about the MIC ([1]; E. coli O 78, 24 hours at 37° C.) of the same compound?
Answer: 12.5 mg/L (≈ 40.5 µM)

Question: And the MIC ([1]; E. coli TEM, 24 hours at 37° C.)?
Answer: 25 mg/L (≈ 81 µM)

Question: And the MIC ([2]; 48 h, read-out: Antibacterial activity (MIC, mg/l), Bact. fragilis 312)?
Answer: 12.5 mg/L (≈ 40.5 µM)

Question: What about the MIC ([2]; 48 h, read-out: Antibacterial activity (MIC, mg/l), Bact. fragilis 1313) of the same compound?
Answer: 12.5 mg/L (≈ 40.5 µM)

Question: What about the MIC ([2]; 48 h, read-out: Antibacterial activity (MIC, mg/l), Bact. fragilis 17390) of the same compound?
Answer: 12.5 mg/L (≈ 40.5 µM)

Question: And the MIC ([2]; 48 h, read-out: Antibacterial activity (MIC, mg/l), Bact. fragilis 18125)?
Answer: 12.5 mg/L (≈ 40.5 µM)

Question: What about the MIC ([2]; 48 h, read-out: Antibacterial activity (MIC, mg/l), Bact. fragilis 19016) of the same compound?
Answer: 12.5 mg/L (≈ 40.5 µM)

Question: And the MIC ([2]; Bact. fragilis 960, read-out: Antibacterial activity (MIC, mg/l))?
Answer: 6.25 mg/L (≈ 20.3 µM)

Question: And the MIC [3]?
Answer: 6.25 mg/L (≈ 20.3 µM)

Question: And the MIC [4]?
Answer: 12.5 mg/L (≈ 40.5 µM)

Question: What about the MIC ([5]; 48 h, read-out: Antibacterial activity (MIC, mg/l), Bact. thetaiotaom. 1428) of the same compound?
Answer: 12.5 mg/L (≈ 40.5 µM)

Question: And the MIC ([5]; 48 h, read-out: Antibacterial activity (MIC, mg/l), Bact. thetaiotaom. 1445)?
Answer: 12.5 mg/L (≈ 40.5 µM)

Question: What about the MIC ([5]; Bact. thetaiotaom. 123, read-out: Antibacterial activity (MIC, mg/l)) of the same compound?
Answer: 6.26 mg/L (≈ 20.3 µM)

Question: What about the MIC [6] of the same compound?
Answer: 12.5 mg/L (≈ 40.5 µM)

Question: What about the MIC [7] of the same compound?
Answer: 12.5 mg/L (≈ 40.5 µM)

Question: What about the MIC [8] of the same compound?
Answer: 12.5 mg/L (≈ 40.5 µM)

Question: And the MIC [9]?
Answer: 12.5 mg/L (≈ 40.5 µM)

Question: And the MIC [10]?
Answer: 12.5 mg/L (≈ 40.5 µM)

Question: What about the MIC [11] of the same compound?
Answer: 12.5 mg/L (≈ 40.5 µM)

Question: And the MIC [12]?
Answer: 12.5 mg/L (≈ 40.5 µM)

Question: And the MIC [13]?
Answer: 31.2 µg/mL (≈ 101 µM)

Question: And the MIC [14]?
Answer: 31.2 µg/mL (≈ 101 µM)

Question: And the MIC [15]?
Answer: 31.2 µg/mL (≈ 101 µM)

Question: What about the MIC [16] of the same compound?
Answer: 31.2 µg/mL (≈ 101 µM)

Question: What about the MIC [17] of the same compound?
Answer: 31.2 µg/mL (≈ 101 µM)

Question: And the MIC [18]?
Answer: 15.6 µg/mL (≈ 50.7 µM)

Question: What about the MIC ([19]; read-out: Antibacterial activity (MIC, mg/l)) of the same compound?
Answer: 6.25 mg/L (≈ 20.3 µM)

Question: What about the MIC ([19]; read-out: Antibacterial activity (MIC, mg/l), Staph. aureus 285, aerobic, 24 hours at 37° C.) of the same compound?
Answer: 12.5 mg/L (≈ 40.5 µM)

Question: What about the MIC ([19]; read-out: Antibacterial activity (MIC, mg/l), Staph. aureus SG511, aerobic, 24 hours at 37° C.) of the same compound?
Answer: 12.5 mg/L (≈ 40.5 µM)

Question: What about the MIC [20] of the same compound?
Answer: 6.25 mg/L (≈ 20.3 µM)

Question: What about the MIC [21] of the same compound?
Answer: 12.5 mg/L (≈ 40.5 µM)

Question: What about the MIC [22] of the same compound?
Answer: 12.5 mg/L (≈ 40.5 µM)

Question: And the MIC [23]?
Answer: 12.5 mg/L (≈ 40.5 µM)

Question: What about the MIC [24] of the same compound?
Answer: 12.5 mg/L (≈ 40.5 µM)
